Laboratory results from US20030130297A1, “Oral administration of 6-hydroxy-oxymorphone for use as an analgesic” (Endo Pharmaceuticals, Inc., priority 2001, published 2003).

Key:
Opiate, Delta 1 = test: Opiate Delta 1 receptor binding assay
[1] = Pharmacokinetic studies: blood plasma levels and pain relief over 12 hours after administration of oxymorphone; assay type: in vivo; details: for Time at which blood plasma levels peak: after administration of oxymorphone
Procedure: In two separate studies, blood plasma levels and indications of pain relief were recorded over a 12 hour period after.
After this time, oxymorphone levels again drop and eventually fall to levels near the earlier plateau.
After the initial peak, however, a more or less steady decline in the 6-hydroxy oxymorphones plasma levels is observed.
The amount administered will be dependent upon normal criteria such as patient weight, intensity of pain, and other factors. Based on the pharmacokinetic studies, blood plasma levels around at least 0.2 ng/mL will provide some analgesia. The upper plasma level limit will be ultimately established by safety concerns. […] Subsequent doses may be required to maintain these blood levels.

[2] = target: Opiate, Delta 2 (Human Recombinant) (Homo sapiens, UniProt P41143); test: Opiate Delta 2 receptor binding assay
Opiate, Delta 2 (Human Recombinant), sequence (P41143 whole entry): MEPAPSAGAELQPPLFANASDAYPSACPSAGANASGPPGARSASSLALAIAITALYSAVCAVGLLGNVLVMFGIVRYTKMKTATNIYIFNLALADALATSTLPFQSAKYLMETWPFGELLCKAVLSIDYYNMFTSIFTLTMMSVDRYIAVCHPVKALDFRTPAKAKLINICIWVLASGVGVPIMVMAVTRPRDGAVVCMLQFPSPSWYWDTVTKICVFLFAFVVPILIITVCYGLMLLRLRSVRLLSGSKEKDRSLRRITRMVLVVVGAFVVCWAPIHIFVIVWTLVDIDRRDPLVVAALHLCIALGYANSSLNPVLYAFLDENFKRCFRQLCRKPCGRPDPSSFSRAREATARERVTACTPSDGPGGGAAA

[3] = target: Opiate, Kappa (Human Recombinant (Homo sapiens, UniProt P41145)); test: Opiate Kappa receptor binding assay
Opiate, Kappa (Human Recombinant, sequence (P41145 whole entry): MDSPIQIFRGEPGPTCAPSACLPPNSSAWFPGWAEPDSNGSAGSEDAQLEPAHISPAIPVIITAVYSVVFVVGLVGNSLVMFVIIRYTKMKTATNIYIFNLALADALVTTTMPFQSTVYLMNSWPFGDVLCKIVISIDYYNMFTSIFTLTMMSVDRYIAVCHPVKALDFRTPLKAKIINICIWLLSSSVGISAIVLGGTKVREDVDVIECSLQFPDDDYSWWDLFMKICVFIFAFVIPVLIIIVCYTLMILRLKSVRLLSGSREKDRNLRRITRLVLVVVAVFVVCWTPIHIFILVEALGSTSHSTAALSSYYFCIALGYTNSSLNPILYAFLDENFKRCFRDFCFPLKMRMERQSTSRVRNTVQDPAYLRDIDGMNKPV

[4] = target: Opiate, Mu (Human Recombinant) (Homo sapiens, UniProt P35372); test: Opiate Mu receptor binding assay
Opiate, Mu (Human Recombinant), sequence (P35372 whole entry): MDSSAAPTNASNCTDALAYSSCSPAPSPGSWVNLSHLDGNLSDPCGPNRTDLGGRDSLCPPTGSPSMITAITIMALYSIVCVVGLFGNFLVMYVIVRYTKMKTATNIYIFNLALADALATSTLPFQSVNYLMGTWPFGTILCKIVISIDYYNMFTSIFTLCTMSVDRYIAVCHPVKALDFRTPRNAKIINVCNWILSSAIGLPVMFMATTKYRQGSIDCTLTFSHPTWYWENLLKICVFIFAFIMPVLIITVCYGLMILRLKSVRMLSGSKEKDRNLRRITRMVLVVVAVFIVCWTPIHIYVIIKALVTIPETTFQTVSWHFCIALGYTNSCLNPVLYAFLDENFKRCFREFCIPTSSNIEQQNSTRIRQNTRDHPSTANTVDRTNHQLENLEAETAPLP

In the case of `CN1CC[C@]23c4c5ccc(O)c4O[C@H]2C(O)CC[C@@]3(O)[C@H]1C5` (some centres unmarked) [6-HYDROXY OXYMORPHONE, 6-hydroxy oxymorphone], the “Assay report, binding, Opiate Delta 1” value (Opiate, Delta 1; 10 nm (1.0 E−8)) is reported as −4.12%, the “Assay report, binding, Opiate Delta 1” value (Opiate, Delta 1; 10 μm (1.0 E−5)) is reported as 90.48% and the “Time at which blood plasma levels peak” value [1] is reported as no more than 2 h. For the same compound, the “Blood plasma level that provides some analgesia” value ([1]; based on the pharmacokinetic studies) was “at least 0.2 ng/mL”, the “Assay report, binding, Opiate Delta 2” value ([2]; 10 nm (1.0 E−8)) was 7.19% and the “Assay report, binding, Opiate Delta 2” value ([2]; 10 μm (1.0 E−5)) was 55.45%. For the same compound, the “Assay report, binding, Opiate Kappa” value ([3]; 10 nm (1.0 E−8)) was 2.45%, the “Assay report, binding, Opiate Kappa” value ([3]; 10 μm (1.0 E−5)) was 62.47% and the “Assay report, binding, Opiate Mu” value ([4]; 10 nm (1.0 E−8)) was 63.16%. The “Assay report, binding, Opiate Mu” value ([4]; 10 μm (1.0 E−5)) was 99.91%.

For `CN1CC[C@]23c4c5ccc(O)c4O[C@H]2C(=O)CC[C@@]3(O)[C@H]1C5` [OXYMORPHONE, oxymorphone], the “Assay report, binding, Opiate Delta 1” value (Opiate, Delta 1; 10 nm (1.0 E−8)) was −18.26%, the “Assay report, binding, Opiate Delta 1” value (Opiate, Delta 1; 10 μm (1.0 E−5)) was 89.03% and the “Time at which blood plasma levels peak” value [1] was no more than 2 h. For the same compound, the “Time at which the blood plasma level spikes again” value ([1]; from administration of oxymorphone) was 4 to 6 h.
